Experimental data as given in patent US11478458B2, “Inhibitors of short-chain dehydrogenase activity for promoting neurogenesis and inhibiting nerve cell death” (CASE WESTERN RESERVE UNIVERSITY, priority 2016, dated 2022).
Read-outs that look alike come from different tables or passages of the source.

Columns and labels:
[1] = system: mice subjected to blast injury (traumatic brain injury); assay: learning, memory and beam walking after traumatic brain injury (blast injury); assay type: in vivo; conditions: blast-injured mice
Procedure: In this study, mice were on day 0 subjected to traumatic brain injury from exposure to an adjacent blast injury in an overpressure chamber. 24 hours later, on study day 1, mice treatment with (+) SW033291 at 10 mg/kg was initiated by daily intraperitoneal injection. A parallel cohort of control mice were initiated on injection with vehicle only. On study day 7, mice commenced 4 days of daily training to learn the location of a cup on a table with 20 holes equally spaced around the perimeter, in the standard Barnes maze task. […] Cohorts that are compared are sham-injured mice, mice subjected to blast injury and treated with vehicle, mice subjected to blast injury and treated with the neuroprotective agent P7C3-A20, and mice subjected to blast injury and treated with (+) SW033291. Quicker time in finding the cup on day 4 is reflective of learning.
On study day 11, mice were returned to the Barnes maze with the escape cup removed, and memory was assessed by measuring the time mice spent within 5 cm of the cup's prior location.
On study day 12-14, mice were further trained to traverse a ½ inch cylindrical rod to reach and enter a black box. On day 14, the mice performance was videotaped and counts were made of the number of times a mouse foot slipped from the beam. […] In this assay, the worst performance is recorded for mice exposed to blast-injury receiving vehicle injections.

[2] = system: prostaglandin E2 (PGE2) in brain; assay: PGE2 in 3 regions of the mouse brain after intraperitoneal injection; assay type: in vivo; conditions: 2.5 mg/kg IP, 3 hours after injection; cerebrum, cerebellum, medulla/pons; 3 mice
Source text: Brain regions sampled are #1, the cerebrum, #2, the cerebellum, and #3, medulla/pons. Basal PGE2 is highest in the cerebrum and medulla/pons, and lowest in the cerebellum.

[3] = system: PGE2 levels in rat brain cortex; assay: PGE2 levels in rat brain cortex after IP injection; assay type: in vivo
Procedure: FIG. 7 illustrates a graph showing PGE2 levels in rat brain cortex following IP injection of (+) SW033291 at 2.5, 5.0, and 10.0 mg/kg. PGE2 levels are elevated in rat brain cortex 30, 120, and 180 minutes following a single IP injection of (+)-SW033291 at the noted doses.

15-PGDH = molecular target: T1, 15-PGDH (Mus musculus, UniProt Q8VCC1); assay: 15-PGDH activity in mouse brain regions after IP injection; assay type: in vivo; conditions: 2.5 mpk IP
T1 construct: from tissue; host or cells: mouse brain (cortex, cerebellum, pons and medulla)
T1 sequence (Q8VCC1 1-269): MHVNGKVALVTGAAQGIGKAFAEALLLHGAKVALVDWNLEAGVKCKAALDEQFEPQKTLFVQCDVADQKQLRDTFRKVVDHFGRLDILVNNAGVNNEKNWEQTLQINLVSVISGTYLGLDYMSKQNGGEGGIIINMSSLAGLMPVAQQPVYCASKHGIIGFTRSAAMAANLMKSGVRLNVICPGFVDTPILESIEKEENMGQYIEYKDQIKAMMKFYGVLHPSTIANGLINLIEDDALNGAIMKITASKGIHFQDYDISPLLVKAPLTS
Procedure: FIGS. 6(A-C) illustrate graphs showing 15-PGDH activity in the cortex (A), cerebellum (B), and pons and medulla (C) of mouse brain following IP injection of 15-PGDH inhibitor (+) SW033291 at 2.5 mpk. 15-PGDH activity was measured from the 3 regions of mouse brain using a 15-tritiated PGE2 substrate. A coupled enzymatic assay uses 15-PGDH and glutamate dehydrogenase to transfer tritium from PGE2 onto glutamate. Brain tissues were harvested for assay at the times shown following IP injection of 15-PGDH inhibitor (+)-SW033291 at 2.5 mpk.

[4] = pharmacokinetics in plasma and brain after intraperitoneal injection; assay type: in vivo; conditions: mouse, 25 mg/kg intraperitoneal, female C57BL/7 mice, read-out: total drug exposure (area under the curve) in brain relative to plasma
[5] = cited from earlier work
EP2 receptors = molecular target: T2, EP2 receptors (Homo sapiens, UniProt P43116); conditions: in vitro; cited from earlier work
T2 construct: host or cells: neurons in vitro
T2 sequence (P43116 whole entry): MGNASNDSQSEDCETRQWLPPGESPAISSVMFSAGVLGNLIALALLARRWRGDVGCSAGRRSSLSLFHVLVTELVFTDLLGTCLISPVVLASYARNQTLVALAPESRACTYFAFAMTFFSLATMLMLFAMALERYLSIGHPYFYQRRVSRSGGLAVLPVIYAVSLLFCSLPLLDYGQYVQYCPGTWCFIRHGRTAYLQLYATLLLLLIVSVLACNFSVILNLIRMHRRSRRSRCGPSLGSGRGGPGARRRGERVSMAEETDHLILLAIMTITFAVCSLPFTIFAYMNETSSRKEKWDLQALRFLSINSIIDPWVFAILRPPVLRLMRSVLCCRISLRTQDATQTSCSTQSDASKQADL

[6] = stability on incubation with hepatocyte extracts; assay type: in vitro ADME
[7] = stability on incubation with hepatocyte cell lines; assay type: in vitro ADME
[8] = toxicity after IP injection into mice
[9] = chemical stability in aqueous solutions; assay type: physicochemical; conditions: over broad pH range
[10] = system: PGE2 production by cell lines; assay: PGE2 production by cell lines; assay type: cell-based
[11] = stability on incubation with rat liver extracts; assay type: in vitro ADME
recombinant 15-PGDH = molecular target: T3, recombinant 15-PGDH (Homo sapiens, UniProt P15428); assay: inhibition of recombinant 15-PGDH; assay type: biochemical
T3 sequence (P15428 1-266): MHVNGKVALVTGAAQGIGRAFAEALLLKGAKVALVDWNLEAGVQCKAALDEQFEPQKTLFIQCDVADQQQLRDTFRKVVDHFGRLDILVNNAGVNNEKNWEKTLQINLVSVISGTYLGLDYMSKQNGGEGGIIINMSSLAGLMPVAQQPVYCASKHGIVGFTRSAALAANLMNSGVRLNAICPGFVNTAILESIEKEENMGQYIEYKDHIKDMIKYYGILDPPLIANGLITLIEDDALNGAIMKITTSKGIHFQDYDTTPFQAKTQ

[12] = stability on incubation with mouse liver extracts; assay type: in vitro ADME
[13] = stability on incubation with human liver extracts; assay type: in vitro ADME

## CCCC[S+]([O-])c1sc2nc(-c3cccs3)cc(-c3ccccc3)c2c1N (single isomer, unassigned; (+)) [(+) SW033291]
[1]; daily IP treatment from 24 hours after injury, study days 7-10
  Barnes maze learning (time to locate the cup, training days 1-4): appear similar to control mice that received only sham injury
[1]; study day 11
  Barnes maze memory (time within 5 cm of the cup's prior location): behaved similarly to control mice that received only sham injury
[1]; study day 14
  foot slips from the beam: intermediate performance
[2]
  brain PGE2 levels versus vehicle: roughly double
[3]; 30, 120 and 180 minutes after single IP injection at 2.5, 5.0, 10.0 mg/kg
  PGE2 levels in rat brain cortex: elevated
[3]; 120 minutes after dosing at 10 mpk IP
  PGE2 levels in rat brain cortex: double
[3]; 180 minutes after dosing at 5 mpk IP
  PGE2 levels in rat brain cortex: double
15-PGDH
  15-PGDH enzyme activity in brain (cortex, cerebellum, pons and medulla): readily inhibited

## CCCC[S+]([O-])c1sc2nc(-c3nccs3)cc(-c3cnc(C)n3C)c2c1N (single isomer, unassigned; (+)) [(+) SW209415]
[4]
  Kp: 1.56

## CCCCC[C@H](O)/C=C/[C@H]1[C@H](O)CC(=O)[C@@H]1C/C=C\CCCC(=O)O [PGE2, prostaglandin E2]
[5]; following intravenous injection
  half-life: less than 1 min
[5]; in the circulatory system
  half-life: approximately 30 sec

## CCCC1([C@H](O)C/C=C/[C@H]2[C@H](O)CC(=O)[C@@H]2CCCCCCC(=O)OC)CCC1 [butaprost]
EP2 receptors
  protection of neurons from amyloid β-peptide neurotoxicity: protected neurons

## CCCC[S+]([O-])c1sc2nc(-c3cccs3)cc(-c3ccccc3)c2c1N (centres unmarked) [formula (IX)]
[6]
  chemical stability when incubated with hepatocyte extracts: chemically stable
[7]
  chemical stability when incubated with hepatocyte cell lines: chemically stable
[8]; IP into mice at 0.3 μmole/per mouse twice daily for 21 days
  toxicity on repeated dosing: no toxicity
[8]; IP into mice at 0.6 μmole/per mouse
  immediate toxicity over 24 hours: no immediate toxicity
[8]; IP into mice at 1.2 μmole/per mouse
  immediate toxicity over 24 hours: no immediate toxicity
[9]
  chemical stability in aqueous solutions: chemically stable
[10]
  PGE2 production by cell lines: increase PGE2 production

## CCCC[S+]([O-])c1sc2nc(-c3nccs3)cc(-c3cnc(C)n3C)c2c1N (centres unmarked) [formula (X)]
[11]
  chemical stability when incubated with rat liver extracts: chemically stable
Recombinant 15-PGDH
  concentration at which recombinant 15-PGDH is inhibited: 3 nM
[12]
  chemical stability when incubated with mouse liver extracts: chemically stable
[13]
  chemical stability when incubated with human liver extracts: chemically stable
[8]; IP into mice at 50 mg/kg body weight
  immediate toxicity over 24 hours: no immediate toxicity
[9]
  chemical stability in aqueous solutions: chemically stable
[10]
  concentration at which PGE2 production by cell lines is increased: 20 nM
